Results: US20230108049A1, “ORAL FAST-DISPERSING DOSAGE FORM OF RIMEGEPANT” (BIOHAVEN PHARMACEUTICAL HOLDING COMPANY LTD., priority 2020, published 2023)

Assays:
[1] = Excretion after oral [14C]-rimegepant; format: in vivo, human; conditions: oral, healthy male subjects
Excerpt: Following oral administration of [^14C]-rimegepant to healthy male subjects, 78% of the total radioactivity was recovered in feces and 24% in urine. Unchanged rimegepant is the major single component in excreted feces (42%) and urine (51%).

Solubility in water = format: physicochemical; conditions: white to off-white crystalline solid

Row | Structure (SMILES) | total radioactivity recovered in feces [1] | total radioactivity recovered in urine [1] | solubility in water (Solubility in water)
1 | N[C@@H]1c2cccnc2[C@H](OC(=O)N2CCC(n3c(=O)[nH]c4ncccc43)CC2)CC[C@H]1c1cccc(F)c1F [[^14C]-rimegepant] | 78% | 24% | 
2 | N[C@@H]1c2cccnc2[C@H](OC(=O)N2CCC(n3c(=O)[nH]c4ncccc43)CC2)CC[C@H]1c1cccc(F)c1F [rimegepant hemisulfate, (5S,6S,9R)-5-amino-6-(2,3-difluorophenyl)-6,7,8,9-tetrahydro-5H-cyclohepta[b]pyridin-9-yl 4-(2-oxo-2,3-dihydro-1H-imidazo[4,5-b]pyridin-1-yl)-1-piperidinecarboxylate hemisulfate sesquihydrate] |  |  | slightly soluble in water
